In patent US10213415B2, “Compounds as opioid receptor modulators” (JANSSEN PHARMACEUTICA NV, priority 2004, dated 2019):
Where “and” joins values, the source holds several entries; their conditions need not be identical. Equal entries are not always repeated. Where two headings read alike, the source gives them in different places.

What was measured:
[1] = molecular target: T1, human delta subtype 2 opioid receptor (Homo sapiens, UniProt P41143); assay: Human Delta Opioid Receptor Binding Assay (CHO membranes, 3H-Naltrindole); settings: read-out: hKi δ
T1 construct: purchased Perkin Elmer RBHODM400UA; host or cells: Chinese Hamster Ovary cells (recombinant expression)
T1 sequence (P41143 whole entry): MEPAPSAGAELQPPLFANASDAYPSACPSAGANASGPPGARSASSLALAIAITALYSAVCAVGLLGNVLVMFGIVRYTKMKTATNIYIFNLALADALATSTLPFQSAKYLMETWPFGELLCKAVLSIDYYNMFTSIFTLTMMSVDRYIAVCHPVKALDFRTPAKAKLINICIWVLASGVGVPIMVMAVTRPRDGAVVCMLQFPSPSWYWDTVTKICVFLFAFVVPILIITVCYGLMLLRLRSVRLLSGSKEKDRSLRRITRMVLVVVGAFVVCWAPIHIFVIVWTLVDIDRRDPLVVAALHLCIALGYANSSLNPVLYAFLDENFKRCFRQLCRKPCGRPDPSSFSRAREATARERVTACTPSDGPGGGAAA
Experimental: This assay is designed to test the ability of a compound to interfere with the binding of tritiated Naltrindole to the human delta subtype 2 opioid receptor. Membranes from Chinese Hamster Ovary cells expressing the human delta subtype 2 opioid receptor (Perkin Elmer #RBHODM400UA) are homogenized in assay buffer (50 mM Tris, pH 7.5 with 5 mM MgCl2) using a glass tissue grinder, Teflon pestle and a Steadfast Stirrer (Fisher Scientific). The concentration of membranes is adjusted to 100 μg/mL in assay buffer and 100 μL is dispensed into each well of the assay plate, a 96 well round bottom polypropylene plate. Compounds to be tested are solubilized in DMSO (Pierce), 10 mM, then diluted in assay buffer to 6× the desired final concentration. The ligand, ^3H-Naltrindole (Perkin Elmer #NET-1065) is also diluted in assay buffer to 6 nM. In a second 96 well round bottom polypropylene plate, known as the premix plate, 60 μL of the 6× compound is combined with 60 μL of 6 nM ^3H-Naltrindole. From this premix plate 50 μL is transferred to the assay plate containing the membranes, in duplicate. The assay plate is incubated for 30 min at room temperature. A GF/C 96 well filter plate (Perkin Elmer #6005174) is pretreated with 0.3% polyethylenimine for 30 min. The contents of the assay plate are filtered through the filter plate using a Packard Filtermate Harvester, and washed 3 times with 0.9% saline that is 4° C. The filter plate is dried, the underside sealed, and 30 μL Microscint20 (Packard #6013621) added to each well. A Topcount-NXT Microplate Scintillation Counter (Packard) is used to measure emitted energies in the range of 2.9 to 35 KeV. Results are compared to maximum binding, wells receiving no inhibitors. Nonspecific binding is determined in the presence of 1 μM unlabelled Naltrindole (Sigma #N115).

human mu opioid receptor = molecular target: T2, human mu opioid receptor (Homo sapiens, UniProt P35372); assay: Human Mu Opioid Receptor Binding Assay (CHO membranes, 3H-Damgo); settings: read-out: hKi μ
T2 construct: purchased Perkin Elmer RBHOMM400UA; host or cells: Chinese Hamster Ovary cells (recombinant expression)
T2 sequence (P35372 whole entry): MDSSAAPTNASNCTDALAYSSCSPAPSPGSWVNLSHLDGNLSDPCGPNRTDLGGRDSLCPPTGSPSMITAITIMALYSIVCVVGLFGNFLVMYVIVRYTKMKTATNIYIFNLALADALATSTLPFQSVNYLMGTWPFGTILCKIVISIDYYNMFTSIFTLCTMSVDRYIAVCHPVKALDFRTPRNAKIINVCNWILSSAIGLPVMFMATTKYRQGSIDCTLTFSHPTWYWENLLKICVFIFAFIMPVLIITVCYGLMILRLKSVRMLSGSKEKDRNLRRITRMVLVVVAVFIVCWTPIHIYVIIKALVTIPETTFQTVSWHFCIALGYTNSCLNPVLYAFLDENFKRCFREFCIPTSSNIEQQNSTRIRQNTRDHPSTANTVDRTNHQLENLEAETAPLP
Procedure, shortened: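 Membranes from CHO cells expressing human mu opioid receptor, 300 μg/mL, in 50 mM Tris pH 7.5, 5 mM MgCl2. Incubated with compound and ³H-Damgo (3.6 nM before mixing) for 2 h at room temperature, filtered, counted by scintillation. Nonspecific binding with 1 μM unlabelled Damgo.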

[2] = tested on: novel environment-stressed mice; assay: In Vivo Assay-Stress-Induced Fecal Output (Fecal Output for 1 hr); design: species or system mouse; settings: for Fecal Output (# pellets) cpd: novel environment-stressed mice; for response vs control in vivo at 30 mg/kg / response vs control in vivo at 10 mg/kg: Mus musculus, po, 1 h; for # of pellets, Compound (m) 3.0 / Fecal pellet output, Compound (% control) 3.0 / Fecal pellet output, Compound (% NES) 3.0: dose 3.0, oral; for # of pellets, Compound (m) 3.0 / Fecal pellet output, Compound (% control) 3.0 / # of pellets, Compound (m) 10.0 / Fecal pellet output, Compound (% control) 10.0 / # of pellets, Compound (m) 30.0 / Fecal pellet output, Compound (% control) 30.0: NES mice; for # of pellets, Compound (m) 3.0 / # of pellets, Compound (m) 10.0 / # of pellets, Compound (m) 30.0: fecal output 1 hr; for Fecal pellet output, Compound (% control) 3.0 / Fecal pellet output, Compound (% control) 10.0 / Fecal pellet output, Compound (% control) 30.0: vs acclimated control; for Fecal pellet output, Compound (% NES) 3.0 / Fecal pellet output, Compound (% NES) 10.0 / Fecal pellet output, Compound (% NES) 30: vs vehicle NES group; for # of pellets, Compound (m) 10.0 / Fecal pellet output, Compound (% control) 10.0 / Fecal pellet output, Compound (% NES) 10.0: dose 10.0, oral; for # of pellets, Compound (m) 30.0 / Fecal pellet output, Compound (% control) 30.0: dose 30.0, oral; for Fecal pellet output, Compound (% NES) 30: dose 30, oral
Excerpt: This assay evaluates the fecal output in novel environment-stressed mice to that of acclimated controls.
Methods: Adult, male, Crl:CD-1(ICR) mice, weighing ˜30-35 g were used in these studies, with a minimum of 10 mice per dose group. One group of mice was assigned as acclimated, or “non-stressed” controls. These control mice were transported from colony housing, where they were housed 3/cage in polycarbonate cages with access to food and water ad lib. to the procedure room. The mice were removed from their home cages and individually housed in 20 cm wide×20 cm deep×15 cm tall cages, equipped with a wire mesh bottom where they remained for a 16-18 hr period of acclimation to their novel environment. Mice were allowed access to food and water ad lib. during acclimation. The other groups of mice were assigned as non-acclimated, or “stressed” treatment groups. Each mouse in each group was weighed and vehicle, or test compound, was intragastrically administered by oral intubation in 0.5% methylcellulose. Mice were allowed access to water only ad lib. during the test period. After compound administrations, acclimated (control) as well as non-acclimated (stressed) mice were individually housed in a 20 cm wide×20 cm deep×15 cm tall cage, with a wire mesh bottom. An absorbant cardboard is placed beneath the cages. The number of fecal pellets excreted by each mouse was determined at hourly intervals following placement of the mice in the individual cages. Raw Data=# of fecal pellets/mouse/hr. […]

[3] = 30 mg/kg oral, relative to acclimated control, 1 hr, read-out: Fecal Output cpd % control
[4] = 30 mg/kg oral, relative to novel environment stress (NES) vehicle group, 1 hr, read-out: Fecal Output cpd % NES

SMILES | Ki [1] | Ki (human mu opioid receptor) [nM] | Fecal Output (# pellets) cpd ([2]; 30 mg/kg oral, 1 hr) [pellets] | response vs control in vivo at 30 mg/kg [2, 3] [%] | response vs control in vivo at 30 mg/kg [2, 4] [%] | # of pellets, Compound (m) 3.0 [2] | Fecal pellet output, Compound (% control) 3.0 [2] | Fecal pellet output, Compound (% NES) 3.0 [2] | # of pellets, Compound (m) 10.0 [2] | Fecal pellet output, Compound (% control) 10.0 [2] | Fecal pellet output, Compound (% NES) 10.0 [2] | # of pellets, Compound (m) 30.0 [2] | Fecal pellet output, Compound (% control) 30.0 [2] | Fecal pellet output, Compound (% NES) 30 [2] | Fecal Output cpd % control ([2]; 30 mg/kg oral, relative to acclimated control, 1 hr) [%] | Fecal Output cpd % NES ([2]; 30 mg/kg oral, relative to novel environment stress (NES) vehicle group, 1 hr) [%] | Fecal Output (# pellets) cpd ([2]; 10 mg/kg oral, 1 hr) [pellets] | response vs control in vivo at 10 mg/kg ([2]; 10 mg/kg oral, relative to acclimated control, 1 hr, read-out: Fecal Output cpd % control) [%] | response vs control in vivo at 10 mg/kg ([2]; 10 mg/kg oral, relative to novel environment stress (NES) vehicle group, 1 hr, read-out: Fecal Output cpd % NES) [%]
Cc1cc(C(N)=O)cc(C)c1C[C@H](N)C(=O)N(Cc1ccccc1)Cc1nc(-c2ccccc2)c[nH]1 [Cpd 107] | 584 nM | 2.95 | 13.1 | 230 | 87.3 | – | – | – | – | – | – | – | – | – | – | – | – | – | –
Cc1cc(O)cc(C)c1C[C@H](N)C(=O)N(Cc1ccoc1)[C@@H](C)c1nc(-c2ccccc2)c[nH]1 [Cpd 55] | 44 nM | 1.8 | 8.3 | 213 | 58.9 | – | – | – | – | – | – | – | – | – | – | – | – | – | –
Cc1cc(O)cc(C)c1C[C@H](N)C(=O)N(Cc1ccccn1)[C@@H](C)c1nc(-c2ccccc2)c[nH]1 [Cpd 93] | 9.5 nM | 0.9 | 5.0 | 139 | 45 | 6.2 | 229.6 % control | 74.7 % NES | 5.5 | 203.7 % control | 66.27 % NES | 3.2 | 119 % control | 38.55 % NES | – | – | – | – | –
Cc1cc(O)cc(C)c1C[C@H](N)C(=O)N(Cc1cccc(C#N)c1)[C@@H](C)c1nc(-c2ccccc2)c[nH]1 [Cpd 91] | 15 nM | 4.8 | 8.9 | 287 | 69 | – | – | – | – | – | – | – | – | – | – | – | – | – | –
CNc1ccc(CN(C(=O)C(N)Cc2c(C)cc(O)cc2C)C(C)c2nc(-c3ccccc3)c[nH]2)cc1 (stereo not drawn) [Cpd 78] | 28.9 nM | 2.4 | 3.3 | 91.7 | 45.2 | – | – | – | – | – | – | – | – | – | – | – | – | – | –
COc1ccc(CN(C(=O)[C@@H](N)Cc2c(C)cc(O)cc2C)[C@@H](C)c2nc(-c3ccccc3)c[nH]2)cc1OC [Cpd 102] | 5.2 nM | 3.5 | 3.4 | 59.6 | 22.7 | 6.9 | 130.2 % control | 64.5 % NES | 4.5 | 84.9 % control | 42.06 % NES | 2.22 | 42 % control | 20.77 % NES | – | – | – | – | –
COC(=O)c1ccc(CN(C(=O)[C@@H](N)Cc2c(C)cc(O)cc2C)[C@@H](C)c2nc(-c3ccccc3)c[nH]2)cc1 [Cpd 89] | 19.3 nM | 9.2 | 6.4 | 128 | 55.2 | – | – | – | – | – | – | – | – | – | – | – | – | – | –
Cc1cc(C(N)=O)cc(C)c1C[C@H](N)C(=O)N(C(C)c1ccccc1)[C@@H](C)c1nc(-c2ccccc2)c[nH]1 (single isomer, unassigned) [Cpd 111] | 307 nM | 6.4 | 4.4 | – | – | – | – | – | – | – | – | – | – | – | 60.8 | 42.5 | – | – | –
Cc1cc(C(N)=O)cc(C)c1C[C@H](N)C(=O)N(Cc1ccccc1)[C@@H](C)c1nc(-c2ccc(Cl)cc2)c(C)[nH]1 [Cpd 58] | 70 nM | 8.5 | 3.9 | 170 | 55.7 | – | – | – | – | – | – | – | – | – | – | – | – | – | –
Cc1cc(O)cc(C)c1C[C@H](N)C(=O)N(Cc1ccc(C(=O)O)cc1)[C@@H](C)c1nc(-c2ccccc2)c[nH]1 [Cpd 80] | 0.95 nM | 1.09 | – | – | 75.3 | – | – | – | – | – | – | – | – | – | – | – | – | – | –
Cc1cc(C(N)=O)cc(C)c1C[C@H](N)C(=O)N(C(C)C)[C@@H](CO)c1nc(-c2ccccc2)c[nH]1 [Cpd 85] | 1170 nM | 5.4 | 7.9 | 146 | 65.8 | – | – | – | – | – | – | – | – | – | – | – | – | – | –
Cc1cc(O)cc(C)c1C[C@H](N)C(=O)N(C(C)C)[C@@H](CO)c1nc(-c2ccccc2)c[nH]1 [Cpd 118] | 316 nM and 212 nM | 1.04 | 7.2 | 134 | 60.2 | – | – | – | – | – | – | – | – | – | – | – | – | – | –
Cc1cc(C(N)=O)cc(C)c1C[C@H](N)C(=O)N(C(C)C)[C@@H](C)c1nc(-c2ccccc2)c[nH]1 [Cpd 143] | 69 nM | 1.6 | 5.2 | 69.3 | 56.5 | – | – | – | – | – | – | – | – | – | – | – | 9.1 | 246 | 66.9
Cc1cc(O)cc(C)c1C[C@H](N)C(=O)N(Cc1c(Cl)cccc1Cl)[C@@H](C)c1nc(-c2ccccc2)c[nH]1 [Cpd 97] | 6.3 nM | 19.2 | 4.8 | 65.8 | 37.2 | 14 and 9.1 | 226.2 % control and 189.6 % control | 119 % NES and 90.1 % NES | 7.5 and 10.4 | 123.0 % control and 216.7 % control | 64.66 % NES and 103 % NES | 3.5 and 2.3 | 57 % control and 48 % control | 30.17 % NES and 22.77 % NES | – | – | – | – | –
Cc1cc(O)cc(C)c1C[C@H](N)C(=O)N(Cc1cccnc1)[C@@H](C)c1nc(-c2ccccc2)c[nH]1 [Cpd 92] | 5.4 nM | 0.25 | 9.2 | 256 | 82.9 | – | – | – | – | – | – | – | – | – | – | – | – | – | –
Cc1cc(O)cc(C)c1C[C@H](N)C(=O)N(Cc1ccc(Cl)c(Cl)c1)Cc1nc(-c2ccccc2)c[nH]1 [Cpd 87] | 38.9 nM | 12.6 | 10.3 | 141 | 79.8 | – | – | – | – | – | – | – | – | – | – | – | – | – | –
